In patent US4866065A, “Imidazothienopyrimidines useful in psychopharmaceutical preparations” (A/S Ferrosan, priority 1987, dated 1989):

tested on: benzodiazepine receptors; assay: in vivo displacement of 3H-flunitrazepam specific binding to brain benzodiazepine receptors in mice; set-up: species or system mice (female, NMR); settings: intraperitoneal, test substance 15 min before 3H-FNM i.v., sacrificed 20 min after 3H-FNM, forebrain
Excerpt: The pharmaceutical properties of the compounds of the invention can be illustrated by determining their capability for displacing radioactive labelled flunitrazepam from benzodiazepine receptors.
The displacement activity of the compounds of the invention may be found by determining the ED50 value. The ED50 value represents the dose (mg/kg) of a test substance which causes the specific binding of flunitrazepam to benzodiazepine receptors in a living brain to be reduced to 50% of the oontrol value.
Such an in vivo test is carried out as follows:
Principle. Twenty minutes after a dose of ^3 H-flunitrazepam (^3 H-FNM) (200 μCi/kg, i.v.) the amount of specific ^3 H-FNM binding to brain benzodiazepine receptors has reached its maximal value.
Test procedure. Suspensions of test substances (2 mg/ml) are prepared in 5% Duphasol-X (TM Duphar, castor oil-ethylene oxide derivative for emulsifying and solubilizing Oil and other water-insoluble substances) by sonification for 10 min using a Branson B15 microtip ultrasonifier (setting 7). Groups of three mice (female, NMR, 18-22 grams) are injected with the test substance at 100 mg/kg intraperitoneally. Fifteen minutes after test substance administration the mice are challenged with 4 μCi intravenously of ^3 H-FNM (70-90 Ci/mole) in 200 μl physiological saline. Twenty minutes after ^3 H-FNM administration mice are sacrificed by decapitation, the forebrains rapidly excised (within 30 sec) and homogenized in 12 ml of icecold 25 mM KH2 PO4, pH 7.1, using an Ultra-Turrax homogenizer fitted with an N 10 shaft. […] The amounts of radioactivity on the filters are determined by conventional scintillation counting. […]
Results. The ED50 value is determined from dose response curves. If only one dose of test substance is administered the ED50 value is calculated as follows, provided that the inhibition of specific binding is within the range of 25-75%: [formula] where Co is specific binding in controls and Cx is specific binding in mice treated with test substance.

| Structure (SMILES) | ED50 (dose reducing specific binding of flunitrazepam to benzodiazepine receptors in living brain to 50% of control) [mg/kg] |
| --- | --- |
| Cn1c(=O)c2sccc2n2cnc(-c3noc(C4CC4)n3)c12 [Compound 3, 3-(5-cyclopropyl-1,2,4-oxadiazol-3-yl)-4,5-dihydro-4-methyl-5-oxo-imidazo[1,5-a]thieno[2,3-e]pyrimidine] | 0.6 |
| Cn1c(=O)c2sccc2n2cnc(-c3nc(C4CC4)no3)c12 [Compound 8, 3-(3-cyclopropyl-1,2,4-oxadiazol-5-yl)-4,5-dihydro-4-methyl-5-oxo-imidazo[1,5-a]thieno[2,3-e]pyrimidine] | 0.9 |
| Cc1noc(-c2ncn3c4ccsc4c(=O)n(C)c23)n1 [Compound 10, 4,5-dihydro-4-methyl-3-(3-methyl-1,2,4-oxadiazol-5-yl)-5-oxo-imidazo[1,5-a]thieno[2,3-e]pyrimidine] | 1.8 |
